Reference: ChEMBL document CHEMBL1949602, “Bacterial biofilm formation inhibitory activity revealed for plant derived natural compounds” (Bioorg Med Chem, 2012)
Values after ≈ are worked out from the molar mass of the structure shown. Active and inactive are the calls of the source. The rule behind the calls is not given here.

Tests used:
[1] = tested on: Staphylococcus epidermidis; assay: Antibacterial activity against Staphylococcus epidermidis ATCC 35984 by broth microdilution method; type: functional
Staphylococcus aureus [2] = assay: Antibacterial activity against Staphylococcus aureus ATCC 6538P assessed as change in bacterial surface protein level at sub-MIC by zymographic analysis; type: functional, organism-based
Staphylococcus aureus [3] = assay: Antibacterial activity against Staphylococcus aureus ATCC 6538P assessed as change in bacterial surface protein level at sub-MIC by SDS-PAGE analysis; type: functional, organism-based
[4] = tested on: Staphylococcus epidermidis; assay: Antibacterial activity against Staphylococcus epidermidis ATCC 35984 assessed as modification of bacterial surface protein pattern at 14 uM by zymographic analysis; type: functional, organism-based
Staphylococcus aureus [5] = assay: Antibacterial activity against Staphylococcus aureus ATCC 6538P assessed as inhibition of planktonic growth at sub-MIC measured up to 25 hrs; type: functional, organism-based
Staphylococcus aureus [6] = assay: Antibacterial activity against Staphylococcus aureus ATCC 6538P by broth microdilution method; type: functional
Staphylococcus aureus [7] = assay: Antibacterial activity against Staphylococcus aureus ATCC 6538P incubated in drug free medium for 18 hrs after MIC determination by broth microdilution method; type: functional
[8] = tested on: Staphylococcus epidermidis; assay: Antibacterial activity against Staphylococcus epidermidis ATCC 35984 assessed as inhibition of biofilm formation after 24 hrs by crystal violet staining; type: functional, organism-based; conditions: ATCC 35984, 24 h
[9] = tested on: Staphylococcus epidermidis; assay: Antibacterial activity against Staphylococcus epidermidis ATCC 35984 assessed as inhibition of planktonic growth at sub-MIC measured up to 25 hrs; type: functional, organism-based
[10] = tested on: Staphylococcus epidermidis; assay: Antibacterial activity against Staphylococcus epidermidis ATCC 35984 incubated in drug free medium for 18 hrs after MIC determination by broth microdilution method; type: functional; conditions: ATCC 35984, 18 h
Staphylococcus aureus [11] = assay: Antibacterial activity against Staphylococcus aureus ATCC 6538P assessed as inhibition of biofilm formation after 24 hrs by crystal violet staining; type: functional, organism-based
[12] = tested on: Staphylococcus epidermidis; assay: Antibacterial activity against Staphylococcus epidermidis ATCC 35984 assessed as modification of bacterial surface protein pattern at 4 uM by zymographic analysis; type: functional, organism-based
[13] = tested on: Staphylococcus epidermidis; assay: Antibacterial activity against Staphylococcus epidermidis ATCC 35984 assessed as disappearance of bacterial surface proteins level at sub-MIC by zymographic analysis; type: functional, organism-based
[14] = tested on: Staphylococcus epidermidis; assay: Antibacterial activity against Staphylococcus epidermidis ATCC 35984 assessed as disappearance of bacterial surface protein level at sub-MIC by SDS-PAGE analysis; type: functional, organism-based
[15] = tested on: Staphylococcus epidermidis; assay: Antibacterial activity against Staphylococcus epidermidis ATCC 35984 assessed as modification of bacterial surface protein pattern at 8 uM by zymographic analysis; type: functional, organism-based
[16] = Ratio of MIC for Staphylococcus aureus ATCC 6538P to MIC for Staphylococcus epidermidis ATCC 35984; type: functional

Structure (SMILES) | MIC [1] | Activity (Staphylococcus aureus [2]) | Activity (Staphylococcus aureus [3]) | Activity [4] | Activity (Staphylococcus aureus [5]) | MIC (Staphylococcus aureus [6]) | MBC (Staphylococcus aureus [7]) | EC50 [8] | Activity [9] | MBC [10] | EC50 (Staphylococcus aureus [11]) | Activity [12] | Activity [13] | Activity [14] | Activity [15] | Ratio [16]
Oc1ccc(-c2cc3ccccc3o2)c(O)c1 | 55.3 µM (≈ 12.5 µg/mL) | inactive | inactive | inactive | inactive | 55.3 µM (≈ 12.5 µg/mL) | 55.3 µM (≈ 12.5 µg/mL) | 23.5 µM | inactive | 55.3 µM (≈ 12.5 µg/mL) | 8.2 µM | – | – | – | – | –
COc1ccc2c(c[n+](C)c3c4cc5c(cc4ccc23)OCO5)c1OC [CHELERYTHRINE CHLORIDE] | 16.3 µM | inactive | inactive | – | inactive | 16.3 µM | > 260 µM | 8.6 µM | inactive | > 260 µM | 15.2 µM | inactive | – | – | – | –
Oc1cc(O)c2c(c1)O[C@@]1(c3ccc(O)c(O)c3)Oc3cc(O)c4c(c3[C@@H]2[C@H]1O)O[C@H](c1ccc(O)c(O)c1)[C@H](O)C4 [PROANTHOCYANIDIN A2] | > 169 µM | inactive | inactive | – | inactive | > 169 µM | > 169 µM | 7.6 µM | inactive | > 169 µM | 6.9 µM | – | Active | Active | – | –
C[n+]1cc2c3c(ccc2c2ccc4cc5c(cc4c21)OCO5)OCO3 [SANGUINARIUM] | 8.5 µM | inactive | inactive | – | inactive | 34 µM | 34 µM | 4.4 µM | inactive | 34 µM | 24.5 µM | – | – | Active | inactive | 4
